Experimental data published in patent publication US8754109B2 (Intermune, Inc., priority 2010, dated 2014).

Assays:
[1] = Phase 1 open-label study: impact of CYP1A2 inhibition (fluvoxamine) and induction (smoking) on pirfenidone pharmacokinetics; format: in vivo, human; settings: for effect of fluvoxamine co-administration on AUC0-∞: Day 11 vs Day 1, paired t-test; for Ratio of Day 11 AUC0-∞ to Day 1 AUC0-∞, Mean (SD) / Ratio of Day 11 AUC0-∞ to Day 1 AUC0-∞, Median (25th-75th): Day 11 with fluvoxamine; for AUC0-∞ Mean (SD) / AUC0-∞ Median (25th-75th): single 801-mg dose of pirfenidone, healthy subjects n = 51, plasma
Procedure: Fifty-four subjects were to be enrolled in two groups, consisting of 27 subjects who were smokers (Group 1) and 27 subjects who were nonsmokers (Group 2). Each group (smokers and nonsmokers) was to include a minimum of nine females and nine males, and attempts were to be made to enroll equal numbers of each sex in each group.
All pharmacokinetic (PK) analyses were conducted using population PK methods using Monte-Carlo parametric expectation maximization as implemented in the open-source software program S ADAPT 1.5.6 (Bauer et al., AAPS Journal 9 (1):E60-83, 2007). The structural model for the analysis was obtained from a preliminary population PK analysis.
If other subject characteristics (such as body size or age) were also associated with the ratio of AUC0-∞ on Day 11 to that on Day 1, the significance of these covariates was also tested.

[2] = pirfenidone therapy, oral; cited from earlier work
[3] = molecular target: CYP1A2 (Homo sapiens, UniProt P05177); assay: in vitro experiments on pirfenidone metabolism by CYP isoforms; format: in vitro ADME
Chain of CYP1A2 (P05177 whole entry, canonical isoform): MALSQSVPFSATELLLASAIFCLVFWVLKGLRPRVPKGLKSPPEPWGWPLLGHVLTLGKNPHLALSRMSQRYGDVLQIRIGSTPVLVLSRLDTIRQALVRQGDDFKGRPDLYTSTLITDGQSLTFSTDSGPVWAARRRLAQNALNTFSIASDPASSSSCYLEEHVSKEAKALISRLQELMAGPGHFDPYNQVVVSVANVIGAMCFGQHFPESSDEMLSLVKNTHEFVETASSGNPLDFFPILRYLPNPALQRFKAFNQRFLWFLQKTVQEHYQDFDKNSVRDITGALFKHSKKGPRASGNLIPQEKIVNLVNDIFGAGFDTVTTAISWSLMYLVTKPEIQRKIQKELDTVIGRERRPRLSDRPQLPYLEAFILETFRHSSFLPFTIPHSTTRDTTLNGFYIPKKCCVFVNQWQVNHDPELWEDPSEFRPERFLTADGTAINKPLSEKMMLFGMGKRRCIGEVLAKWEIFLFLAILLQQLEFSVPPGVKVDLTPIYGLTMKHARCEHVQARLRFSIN

[4] = system: multiple other CYPs (1A1, 2A6, 2B6, 2C8, 2C9, 2C18, 2C19, 2D6, 2E1, 2J2, 3A4, 3A5, 4A11, and 4F2); assay: as above; format: in vitro ADME; settings: each isoform

| Structure (SMILES) | ratio of Cmax on Day 11 to the Cmax on Day 1, mean (95% CI) ([1]; Day 11 after fluvoxamine vs Day 1, all subjects) | effect of fluvoxamine co-administration on AUC0-∞ [1] | Ratio of Day 11 AUC0-∞ to Day 1 AUC0-∞, Mean (SD) ([1]; Nonsmokers (N 25)) | Ratio of Day 11 AUC0-∞ to Day 1 AUC0-∞, Median (25th-75th) ([1]; Nonsmokers (N 25)) | Ratio of Day 11 AUC0-∞ to Day 1 AUC0-∞, Mean (SD) ([1]; Smokers (N 26)) | Ratio of Day 11 AUC0-∞ to Day 1 AUC0-∞, Median (25th-75th) ([1]; Smokers (N 26)) | AUC0-∞ Mean (SD) ([1]; Study Day 1: Pre-Fluvoxamine) | AUC0-∞ Median (25th-75th) ([1]; Study Day 1: Pre-Fluvoxamine) | AUC0-∞ Mean (SD) ([1]; Study Day 11: Post-Fluvoxamine) | AUC0-∞ Median (25th-75th) ([1]; Study Day 11: Post-Fluvoxamine) | incidence of most common adverse reactions (nausea, rash, dyspepsia, dizziness, vomiting, photosensitivity reaction, anorexia) [2] | share of pirfenidone metabolism by CYP1A2 [3] | share of pirfenidone metabolism by each of the other CYPs [4] | drop in AUC0-∞ in smokers after accounting for differences in BSA ([1]; Day 1 estimates, AUC0-∞ normalized to body surface area, multiple linear regression, smokers vs nonsmokers) | increase in Cmax after administration of fluvoxamine, on average ([1]; after administration of fluvoxamine) | exposure (AUC0-∞) times higher after fluvoxamine, on average ([1]; after ten days of dosing with fluvoxamine) | decrease in pirfenidone exposure (AUC0-∞) in patients that concomitantly smoke, on average ([1]; compared to patients that do not smoke) | exposure (AUC0-∞) in patients who smoke as % of exposure in patients that didn't smoke, on average ([1]; smokers vs nonsmokers) |
| --- | --- | --- | --- | --- | --- | --- | --- | --- | --- | --- | --- | --- | --- | --- | --- | --- | --- | --- |
| O=C(O)c1ccc(=O)n(-c2ccccc2)c1 [5-Carboxy-Pirfenidone, 5-carboxy-pirfenidone] | 0.369 (0.349-0.390) | not a statistically significant effect | 1.05 (0.114) | 1.03 (0.978-1.11) | 1.12 (0.0951) | 1.13 (1.04-1.19) | 29.3 (8.22) mg · hr/L | 26.9 (22.0-33.7) mg · hr/L | 31.7 (8.96) mg · hr/L | 29.4 (25.4-36.5) mg · hr/L | – | – | – | – | – | – | – | – |
| Cc1ccc(=O)n(-c2ccccc2)c1 [Pirfenidone, 5-methyl-1-phenyl-2-(1H)-pyridone, reference compound] | – | significant increase | – | – | – | – | – | – | – | – | > 10% | approx. 48% | < 13% | ~50% | two-fold | ~6 times | about 50% | about 50% |
